According to US11697648B2, “Fused pyrimidine pyridinone compounds as JAK inhibitors” (THERAVANCE BIOPHARMA R&D IP, LLC, priority 2019, dated 2023):

Legend:
JAK1 = JAK1 (Homo sapiens (Human), UniProt P23458); test: Biochemical JAK1 kinase assay (LanthaScreen)
Summary of the method: (§1)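 GST-JAK + GFP-STAT1 peptide, HEPES pH 7.5/MgCl2/EGTA/Brij-35 buffer; cpd preincubation 1 h RT; ATP start, 1 h RT; stop with 10 mM EDTA + 2 nM Tb-anti-pSTAT1; TR-FRET 520/495. 4-parameter IC50 → pKi (Cheng-Prusoff).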

JAK2 = JAK2 (Homo sapiens (Human), UniProt O60674); test: Biochemical JAK2 kinase assay (LanthaScreen)
Chain of JAK2 (O60674 whole entry): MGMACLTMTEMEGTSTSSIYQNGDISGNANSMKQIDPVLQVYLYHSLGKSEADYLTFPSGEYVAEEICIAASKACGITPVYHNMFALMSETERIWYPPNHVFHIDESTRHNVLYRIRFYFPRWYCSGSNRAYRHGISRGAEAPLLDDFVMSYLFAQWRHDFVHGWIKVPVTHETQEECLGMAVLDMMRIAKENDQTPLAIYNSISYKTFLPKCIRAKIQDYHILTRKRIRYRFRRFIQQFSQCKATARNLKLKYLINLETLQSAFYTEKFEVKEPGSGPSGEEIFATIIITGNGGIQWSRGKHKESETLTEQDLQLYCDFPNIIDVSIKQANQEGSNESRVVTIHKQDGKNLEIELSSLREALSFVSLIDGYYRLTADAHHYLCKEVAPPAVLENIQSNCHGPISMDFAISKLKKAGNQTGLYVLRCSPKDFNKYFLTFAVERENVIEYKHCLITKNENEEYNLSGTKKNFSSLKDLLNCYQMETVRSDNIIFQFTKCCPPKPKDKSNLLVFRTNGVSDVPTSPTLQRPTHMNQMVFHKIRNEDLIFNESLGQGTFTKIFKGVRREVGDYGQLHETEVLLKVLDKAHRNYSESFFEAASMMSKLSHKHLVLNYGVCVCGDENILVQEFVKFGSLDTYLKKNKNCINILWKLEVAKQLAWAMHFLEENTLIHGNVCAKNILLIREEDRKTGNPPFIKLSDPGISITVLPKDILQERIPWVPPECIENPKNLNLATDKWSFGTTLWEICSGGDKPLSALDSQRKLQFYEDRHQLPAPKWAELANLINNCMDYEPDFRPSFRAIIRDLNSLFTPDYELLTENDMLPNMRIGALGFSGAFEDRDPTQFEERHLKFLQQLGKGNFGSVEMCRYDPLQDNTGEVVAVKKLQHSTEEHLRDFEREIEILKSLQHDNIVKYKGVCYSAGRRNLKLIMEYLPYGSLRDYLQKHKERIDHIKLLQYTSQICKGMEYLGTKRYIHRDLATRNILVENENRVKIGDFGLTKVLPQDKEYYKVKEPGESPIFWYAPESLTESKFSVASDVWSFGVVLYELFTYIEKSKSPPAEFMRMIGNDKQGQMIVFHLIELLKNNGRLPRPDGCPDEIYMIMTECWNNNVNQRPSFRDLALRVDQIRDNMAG
Summary of the method: as §1

JAK3 = JAK3 (Homo sapiens (Human), UniProt P52333); test: Biochemical JAK3 kinase assay (LanthaScreen)
Chain of JAK3 (P52333 whole entry): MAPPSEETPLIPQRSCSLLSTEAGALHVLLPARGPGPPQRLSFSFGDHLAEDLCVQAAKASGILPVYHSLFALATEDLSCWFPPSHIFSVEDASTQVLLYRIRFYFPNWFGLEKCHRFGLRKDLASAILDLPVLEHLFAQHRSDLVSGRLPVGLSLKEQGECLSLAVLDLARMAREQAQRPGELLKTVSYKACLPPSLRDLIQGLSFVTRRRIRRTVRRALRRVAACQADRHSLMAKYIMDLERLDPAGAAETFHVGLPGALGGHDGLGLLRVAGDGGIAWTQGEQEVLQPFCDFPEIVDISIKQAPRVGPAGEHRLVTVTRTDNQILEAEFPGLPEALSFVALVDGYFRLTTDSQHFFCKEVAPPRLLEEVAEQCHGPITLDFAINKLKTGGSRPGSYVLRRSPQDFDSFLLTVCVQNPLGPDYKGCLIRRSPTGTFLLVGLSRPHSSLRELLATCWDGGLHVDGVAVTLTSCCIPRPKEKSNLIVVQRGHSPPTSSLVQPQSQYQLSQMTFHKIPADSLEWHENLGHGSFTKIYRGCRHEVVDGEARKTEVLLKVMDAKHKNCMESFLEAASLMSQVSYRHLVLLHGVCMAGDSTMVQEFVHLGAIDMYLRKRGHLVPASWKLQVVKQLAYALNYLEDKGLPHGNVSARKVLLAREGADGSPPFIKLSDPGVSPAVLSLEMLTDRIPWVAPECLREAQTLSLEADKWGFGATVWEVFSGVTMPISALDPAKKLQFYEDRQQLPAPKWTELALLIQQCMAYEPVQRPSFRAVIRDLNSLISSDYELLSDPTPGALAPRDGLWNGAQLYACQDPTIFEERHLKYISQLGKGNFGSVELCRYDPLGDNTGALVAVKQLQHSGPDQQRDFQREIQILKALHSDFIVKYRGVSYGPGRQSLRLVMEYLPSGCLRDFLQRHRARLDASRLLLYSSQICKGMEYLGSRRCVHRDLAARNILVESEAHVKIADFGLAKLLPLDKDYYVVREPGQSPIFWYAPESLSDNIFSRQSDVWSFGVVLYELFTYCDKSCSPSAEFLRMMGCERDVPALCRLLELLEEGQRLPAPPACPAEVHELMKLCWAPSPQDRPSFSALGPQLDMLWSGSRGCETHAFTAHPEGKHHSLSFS
Summary of the method: as §1

Tyk2 = Tyk2 (Homo sapiens (Human), UniProt P29597); test: Biochemical Tyk2 kinase assay (LanthaScreen)
Chain of Tyk2 (P29597 whole entry): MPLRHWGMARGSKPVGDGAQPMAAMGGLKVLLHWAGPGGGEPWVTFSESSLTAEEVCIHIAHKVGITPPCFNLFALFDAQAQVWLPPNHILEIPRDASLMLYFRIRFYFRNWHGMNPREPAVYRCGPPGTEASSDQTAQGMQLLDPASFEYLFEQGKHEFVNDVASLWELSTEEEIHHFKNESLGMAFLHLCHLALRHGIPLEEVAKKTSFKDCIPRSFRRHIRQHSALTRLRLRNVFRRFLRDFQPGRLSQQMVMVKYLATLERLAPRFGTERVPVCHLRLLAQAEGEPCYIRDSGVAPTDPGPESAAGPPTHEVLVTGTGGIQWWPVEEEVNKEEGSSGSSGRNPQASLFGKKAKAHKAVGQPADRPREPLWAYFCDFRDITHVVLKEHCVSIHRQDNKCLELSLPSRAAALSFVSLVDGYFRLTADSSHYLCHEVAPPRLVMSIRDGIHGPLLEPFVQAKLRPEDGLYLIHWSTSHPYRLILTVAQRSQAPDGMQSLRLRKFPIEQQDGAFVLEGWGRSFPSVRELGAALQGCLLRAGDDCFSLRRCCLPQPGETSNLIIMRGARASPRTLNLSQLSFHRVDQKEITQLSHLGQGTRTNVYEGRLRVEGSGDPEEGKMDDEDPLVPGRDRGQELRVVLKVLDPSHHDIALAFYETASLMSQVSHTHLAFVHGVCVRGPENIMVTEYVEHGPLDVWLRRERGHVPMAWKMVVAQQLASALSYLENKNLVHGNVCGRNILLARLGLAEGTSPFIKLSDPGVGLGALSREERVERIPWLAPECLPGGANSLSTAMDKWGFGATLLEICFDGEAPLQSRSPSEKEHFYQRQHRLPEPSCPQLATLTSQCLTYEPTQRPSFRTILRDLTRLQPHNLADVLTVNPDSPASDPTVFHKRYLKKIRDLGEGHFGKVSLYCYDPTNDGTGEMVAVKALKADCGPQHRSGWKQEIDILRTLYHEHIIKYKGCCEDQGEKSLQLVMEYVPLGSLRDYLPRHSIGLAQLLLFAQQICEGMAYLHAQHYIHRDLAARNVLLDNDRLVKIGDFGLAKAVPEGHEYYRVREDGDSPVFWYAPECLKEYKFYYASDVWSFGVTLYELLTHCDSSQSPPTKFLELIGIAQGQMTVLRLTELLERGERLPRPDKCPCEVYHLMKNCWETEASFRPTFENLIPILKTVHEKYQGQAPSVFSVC
Summary of the method: as §1

[1] = system: IL-2 stimulated STAT5 phosphorylation in Tall-1 human T cell line (JAK3); test: Cellular JAK3 potency assay: inhibition of IL-2 stimulated pSTAT5 in Tall-1 T cells; assay type: cell-based; details: IL-2 stimulated pSTAT5, Tall-1 T cells
Summary of the method: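 Tall-1 cells, 45,000 per well, preincubated 1 hour with compound at 37 °C, then stimulated 30 minutes with IL-2 at 300 ng/ml final. pSTAT5 (Tyr694/699) in lysates quantified by AlphaLISA SureFire Ultra. pIC50 derived from inhibition curves, given as mean with SD.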

Caco-2 cell monolayers = test: Caco-2 permeation assay; assay type: in vitro ADME; details: 5 μM, A-B direction, with Verapamil (25 μM)
Summary of the method: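 Compounds tested at 5 μM in duplicate across Caco-2 monolayers, apical-to-basolateral, with 25 μM verapamil to block P-gp, at 37° C., 5% CO2. Apical and basal samples taken at 0 and 120 min, analysed by LC-MS/MS; Papp (cm/sec) calculated as dQ/(dt×Area×concentration).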

[2] = Colon and plasma mouse pharmacokinetics; assay type: in vivo; details: mouse, colon tissue / plasma; male Balb/c mice, 10 mg/kg PO; ratio of the colon AUC to the plasma AUC
Summary of the method: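 Male Balb/c mice given 10 mg/kg PO in 1% HPMC + 0.1% Tween-80; plasma, colon tissue and colon contents taken at 0.5, 2 and 6 h, quantified by LC/MS/MS. Non-compartmental analysis on means of 2 animals/time point; colon:plasma ratio taken as colon AUC over plasma AUC.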

Chain of JAK1 (P23458 whole entry): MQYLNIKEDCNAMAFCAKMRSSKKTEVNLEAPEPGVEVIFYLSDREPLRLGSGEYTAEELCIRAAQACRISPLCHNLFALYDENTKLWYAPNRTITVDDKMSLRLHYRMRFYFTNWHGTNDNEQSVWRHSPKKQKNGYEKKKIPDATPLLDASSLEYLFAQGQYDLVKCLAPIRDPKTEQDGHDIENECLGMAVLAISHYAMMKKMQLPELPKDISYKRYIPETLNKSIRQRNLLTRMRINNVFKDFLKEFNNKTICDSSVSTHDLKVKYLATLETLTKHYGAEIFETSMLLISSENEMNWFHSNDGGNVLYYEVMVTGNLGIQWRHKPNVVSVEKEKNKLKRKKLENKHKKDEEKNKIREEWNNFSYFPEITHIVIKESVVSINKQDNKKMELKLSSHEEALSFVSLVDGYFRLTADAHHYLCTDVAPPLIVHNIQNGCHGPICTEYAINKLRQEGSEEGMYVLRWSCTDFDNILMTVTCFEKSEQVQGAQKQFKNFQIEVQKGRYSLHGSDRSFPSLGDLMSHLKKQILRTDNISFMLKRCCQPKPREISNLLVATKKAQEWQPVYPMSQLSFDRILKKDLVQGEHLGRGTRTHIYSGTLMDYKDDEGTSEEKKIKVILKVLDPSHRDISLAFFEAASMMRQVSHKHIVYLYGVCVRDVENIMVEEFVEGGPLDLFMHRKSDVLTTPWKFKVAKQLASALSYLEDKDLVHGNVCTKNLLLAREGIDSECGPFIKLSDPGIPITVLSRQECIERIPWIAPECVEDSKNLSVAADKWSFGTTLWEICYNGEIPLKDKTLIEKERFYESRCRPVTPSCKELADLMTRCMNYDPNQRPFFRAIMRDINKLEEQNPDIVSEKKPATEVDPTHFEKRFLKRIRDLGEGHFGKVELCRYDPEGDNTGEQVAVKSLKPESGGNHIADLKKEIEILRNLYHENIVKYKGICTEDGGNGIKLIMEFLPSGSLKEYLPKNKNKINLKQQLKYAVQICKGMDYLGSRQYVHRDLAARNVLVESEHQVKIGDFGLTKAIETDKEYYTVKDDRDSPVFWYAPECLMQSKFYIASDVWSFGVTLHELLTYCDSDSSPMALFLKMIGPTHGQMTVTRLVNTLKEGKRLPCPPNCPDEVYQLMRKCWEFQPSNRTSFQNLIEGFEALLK

## C=CC(=O)N1CCN(CCn2c(=O)ccc3cnc(Nc4ccc(N5CCSCC5)cc4)nc32)CC1 [Example 38]
JAK1
  JAK 1 (pKi): E (E represents a pKi value of 7 or below (Ki of 100 nM or above))
JAK2
  JAK 2 (pKi): E (E represents a pKi value of 7 or below (Ki of 100 nM or above))
JAK3
  JAK 3 (pKi): B (B represents pKi value between 9 and 10 (Ki between 1 nM and 0.1 nM))
JAK3; selectivity JAK3 over JAK1, difference of pKi
  JAK3 (pKi)-JAK1 (pKi): A (A represents a value of 3 or above)
Tyk2
  Tyk 2 (pKi): E (E represents a pKi value of 7 or below (Ki of 100 nM or above))
[1]
  Tall-1 (pIC50): B (B represents a pC50 value between 6.7 (included) and 7.5 (IC50 between 200 nM and 32 nM))
Caco-2 cell monolayers
  Caco Kp: C (C represents a value between 10×10^−6 and 30×10^−6 cm/sec)
[2]
  Kp: > 1000
